What was measured:
[1] = tested on: MCF-7; assay: monolayer proliferation assay (modified propidium iodide assay), MCF-7; assay type: cell-based, human; conditions: MCF-7 (Breast), 4 days continuous exposure
Experimental: (§1) In vitro evaluation of compounds for anticancer activity in a panel of human tumour cell lines in a monolayer proliferation assay was carried out at the Oncotest Testing Facility, Institute for Experimental Oncology, Oncotest GmbH, Freiburg.
(§2) The Oncotest cell lines were established from human tumor xenografts as described by Roth et al., (1999). The origin of the donor xenografts was described by Fiebig et al., (1999). Other cell lines are either obtained from the NCI (DU145, MCF-7) or purchased from DSMZ, Braunschweig, Germany.
(§3) All cell lines, unless otherwise specified, were grown at 37° C. in a humidified atmosphere (95% air, 5% CO2) in a ‘ready-mix’ medium containing RPMI 1640 medium, 10% fetal calf serum, and 0.1 mg/mL gentamicin (PAA, Cölbe, Germany).
(§4) A modified propidium iodide assay was used to assess the effects of the test compound(s) on the growth of the human tumour cell lines (Dengler et al., (1995)).
(§5) Briefly, cells were harvested from exponential phase cultures by trypsinization, counted and plated in 96 well flat-bottomed microtitre plates at a cell density dependent on the cell line (5-10.000 viable cells/well). […] After thawing the plates, fluorescence was measured using the Cytofluor 4000 microplate reader (excitation 530 nm, emission 620 nm), giving a direct relationship to the total number of viable cells.
(§6) Growth inhibition is expressed as treated/control×100 (% T/C). […]

[2] = tested on: LXF 1121L; assay: monolayer proliferation assay (modified propidium iodide assay), LXF 1121L; assay type: cell-based, human; conditions: LXF 1121L (Lung, large cell ca), 4 days continuous exposure
Experimental: as §1, §2, §3, §4, §5, §6

[3] = tested on: MEXF 394NL; assay: monolayer proliferation assay (modified propidium iodide assay), MEXF 394NL; assay type: cell-based, human; conditions: MEXF 394NL (Melanoma), 4 days continuous exposure
Experimental: as §1, §2, §3, §4, §5, §6

[4] = tested on: DU145; assay: monolayer proliferation assay (modified propidium iodide assay), DU145; assay type: cell-based, human; conditions: DU145 (Prostate - PTEN positive), 4 days continuous exposure
Experimental: as §1, §2, §3, §4, §5, §6

[5] = tested on: CXF HT29; assay: monolayer proliferation assay (modified propidium iodide assay), CXF HT29; assay type: cell-based, human; conditions: CXF HT29 (Colon), 4 days continuous exposure
Experimental: as §1, §2, §3, §4, §5, §6

[6] = tested on: CNXF 498NL; assay: monolayer proliferation assay (modified propidium iodide assay), CNXF 498NL; assay type: cell-based, human; conditions: CNXF 498NL (CNS), 4 days continuous exposure
Experimental: as §1, §2, §3, §4, §5, §6

[7] = molecular target: terminal deoxynucleotidyl transferase (Homo sapiens, UniProt P04053); conditions: cited from earlier work
Chain of terminal deoxynucleotidyl transferase (P04053 whole entry, species assumed): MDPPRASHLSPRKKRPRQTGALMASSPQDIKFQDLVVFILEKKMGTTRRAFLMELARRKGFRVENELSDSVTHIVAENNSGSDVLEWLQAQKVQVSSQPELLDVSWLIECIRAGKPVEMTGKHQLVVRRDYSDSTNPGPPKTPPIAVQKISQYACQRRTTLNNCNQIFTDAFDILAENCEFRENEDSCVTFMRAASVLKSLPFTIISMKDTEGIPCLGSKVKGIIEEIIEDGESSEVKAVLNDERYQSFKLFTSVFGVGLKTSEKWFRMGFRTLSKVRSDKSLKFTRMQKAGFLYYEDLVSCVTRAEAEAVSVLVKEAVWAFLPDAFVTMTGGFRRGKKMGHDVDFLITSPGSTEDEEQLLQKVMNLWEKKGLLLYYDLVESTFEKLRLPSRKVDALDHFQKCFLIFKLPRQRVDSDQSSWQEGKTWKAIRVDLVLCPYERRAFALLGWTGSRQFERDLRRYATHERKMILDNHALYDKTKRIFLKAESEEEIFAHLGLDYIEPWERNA

[8] = tested on: Reverse transcriptase; conditions: cited from earlier work

CO[C@H]1[C@@H](OC)C[C@H](C)[C@@H](O)C2=CC(=O)C=C(NC(=O)/C(C)=C/C=C\[C@H](C)[C@@H](OC(N)=O)/C(C)=C/[C@@H]1C)C2=O [Compound 14, 15-O-desmethylmacbecin]
Test/Control (%) at drug concentration ([1]; 1 μg/mL): 65.3%
Test/Control (%) at drug concentration ([1]; 10 μg/mL): 15.3%
Test/Control (%) at drug concentration ([2]; 1 μg/mL): 63%
Test/Control (%) at drug concentration ([2]; 10 μg/mL): 6%
Test/Control (%) at drug concentration ([3]; 1 μg/mL): 17%
Test/Control (%) at drug concentration ([3]; 10 μg/mL): 2.3%
Test/Control (%) at drug concentration ([4]; 1 μg/mL): 49.7%
Test/Control (%) at drug concentration ([4]; 10 μg/mL): 6%
Test/Control (%) at drug concentration ([5]; 1 μg/mL): 58.3%
Test/Control (%) at drug concentration ([5]; 10 μg/mL): 7.7%
Test/Control (%) at drug concentration ([6]; 1 μg/mL): 49.3%
Test/Control (%) at drug concentration ([6]; 10 μg/mL): 4.7%

CO[C@H]1[C@@H](OC)C[C@H](C)[C@@H](OC)C2=CC(=O)C=C(NC(=O)/C(C)=C/C=C\[C@H](C)[C@@H](OC(N)=O)/C(C)=C/[C@@H]1C)C2=O [Macbecin, macbecin]
terminal deoxynucleotidyl transferase activity inhibition [7]: not inhibited
Reverse transcriptase activity inhibition [8]: not inhibited

Reference: US20090209507A1, “15-O-Desmethylmacbecin Derivatives and Their Use in the Treatment of Cancer or B-Cell Malignancies” (priority 2006, published 2009)
